System: HLA-DR
Type: cell-based, human

RGILKRNSSSSSTDS [5-HUMAN-B, reference compound]
% Inhibition by HLA-DR blocking Ab: 100%

— patent US20180179256A1 (priority 2015, published 2018)
